pEC50: −log10 of the molar value.
What was measured:
HBV = experiment: Anti-HBV activity in HepG2.2.15 cells (HBV DNA in culture medium by qPCR); type: cell-based; settings: Hepatitis B virus, HepG2.2.15, 144 h, HepG2.2.15 cells, 6 days treatment, HBV DNA in culture medium quantified by real-time PCR; read-out: EC50
Procedure, shortened: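 Secreted HBV DNA was measured by real-time PCR after 6-day compound exposure of HepG2.2.15 cells (2% FBS, 37 °C, re-dosed after 3 days), giving EC50 from 8-point 1:3 series starting at 10 or 1 uM. Cytotoxicity (CC50) run separately at lower cell density, top 100 uM.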

[1] = Cytotoxicity determination in HepG2.2.15 cells (CCK-8 cell viability); type: cell-based; settings: human, 6 days treatment, CCK-8 assay, highest concentration 100 uM
Procedure, shortened: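 Viability measured by CCK-8 absorbance (450 nm, 630 nm reference, 2.5 h at 37° C) after six days of treatment, medium and compound renewed on day 3. Top concentration 100 uM, eight threefold dilutions in triplicate; cells plated at 5,000/well in 2% FBS medium; CC50 derived.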

Structure (SMILES)	pEC50 (HBV)	CC50 at 6 days [1]
COC(=O)C1=C(CN2CC(F)(F)[C@H]3[C@@H]2CN(C(C)=O)N3CCC(C)(C)C(=O)O)NC(c2nccs2)=N[C@H]1c1ccc(F)c(F)c1Cl (single isomer, unassigned) [Compound 79B, 4-((cis)-2-acetyl-4-((6-(2-chloro-3,4-difluorophenyl)-5-(methoxycarbonyl)-2-(thiazol-2-yl)-3,6-dihydropyrimidin-4-yl)methyl)-6,6-difluorohexahydropyrrolo[3,2-c]pyrazol-1(2H)-yl)-2,2-dimethylbutanoic acid]	7.57	54900 nM
CCOC(=O)C1=C(CN2CC(F)(F)[C@H]3[C@@H]2CN(C(C)=O)N3CCC(C)(C)C(=O)O)NC(c2nccs2)=N[C@@H]1c1ccc(F)c(F)c1C (single isomer, unassigned) [Compound 80B, 4-((cis)-2-acetyl-4-((6-(3,4-difluoro-2-methylphenyl)-5-(ethoxycarbonyl)-2-(thiazol-2-yl)-3,6-dihydropyrimidin-4-yl)methyl)-6,6-difluorohexahydropyrrolo[3,2-c]pyrazol-1(2H)-yl)-2,2-dimethylbutanoic acid]	8.10	24100 nM
CCOC(=O)C1=C(CN2CC(F)(F)[C@H]3[C@@H]2CN(C(C)=O)N3CCC(C)(C)C(=O)O)NC(c2nccs2)=N[C@H]1c1cccc(F)c1Cl (single isomer, unassigned) [Compound 81B, 4-((cis)-2-acetyl-4-((6-(2-chloro-3-fluorophenyl)-5-(ethoxycarbonyl)-2-(thiazol-2-yl)-3,6-dihydropyrimidin-4-yl)methyl)-6,6-difluorohexahydropyrrolo[3,2-c]pyrazol-1(2H)-yl)-2,2-dimethylbutanoic acid]	7.89	35900 nM
COC(=O)C1=C(CN2CC(F)(F)[C@H]3[C@@H]2CN(C(C)=O)N3CCC(C)(C)C(=O)O)NC(c2nccs2)=N[C@H]1c1ccc(F)c(F)c1C (single isomer, unassigned) [Compound 82B, 4-((cis)-2-acetyl-4-((6-(3,4-difluoro-2-methylphenyl)-5-(methoxycarbonyl)-2-(thiazol-2-yl)-3,6-dihydropyrimidin-4-yl)methyl)-6,6-difluorohexahydropyrrolo[3,2-c]pyrazol-1(2H)-yl)-2,2-dimethylbutanoic acid]	7.43	46900 nM
CCOC(=O)C1=C(CN2CC(F)(F)[C@@H]3[C@H]2CN(C(C)=O)N3CCC(C)(C)C(=O)O)NC(c2nccs2)=N[C@H]1c1ccc(F)c(F)c1F (single isomer, unassigned) [Compound 83A, 4-((cis)-2-acetyl-4-((5-(ethoxycarbonyl)-2-(thiazol-2-yl)-6-(2,3,4-trifluorophenyl)-3,6-dihydropyrimidin-4-yl)methyl)-6,6-difluorohexahydropyrrolo[3,2-c]pyrazol-1(2H)-yl)-2,2-dimethylbutanoic acid]	7.34	73500 nM
CCOC(=O)C1=C(CN2CC(F)(F)[C@H]3[C@@H]2CN(C(C)=O)N3CCC(C)(C)C(=O)O)NC(c2nccs2)=N[C@H]1c1ccc(F)c(F)c1F (single isomer, unassigned) [Compound 83B, 4-((cis)-2-acetyl-4-((5-(ethoxycarbonyl)-2-(thiazol-2-yl)-6-(2,3,4-trifluorophenyl)-3,6-dihydropyrimidin-4-yl)methyl)-6,6-difluorohexahydropyrrolo[3,2-c]pyrazol-1(2H)-yl)-2,2-dimethylbutanoic acid]	7.46	39000 nM
COC(=O)C1=C(CN2CC(F)(F)[C@@H]3[C@H]2CN(C(C)=O)N3CCC(C)(C)C(=O)O)NC(c2nccs2)=N[C@H]1c1cccc(F)c1Cl (single isomer, unassigned) [Compound 84A]	7.28	> 100000 nM
CCOC(=O)C1=C(CN2CC(F)(F)[C@@H]3[C@H]2CN(C(=O)C2(F)CC2)N3CCC(C)(C)C(=O)O)NC(c2nccs2)=N[C@H]1c1cccc(F)c1C (single isomer, unassigned) [Compound 85]	7.16	22600 nM
CCOC(=O)C1=C(CN2CC(F)(F)[C@@H]3[C@H]2CN(C=O)N3CCC(C)(C)C(=O)O)NC(c2nccs2)=N[C@H]1c1cccc(F)c1C (single isomer, unassigned) [Compound 86]	6.89	> 50000 nM
CCOC(=O)C1=C(CN2CC(F)(F)[C@H]3[C@@H]2C(=O)N(CC(C)(C)C(=O)O)N3C)NC(c2nccs2)=N[C@H]1c1cccc(F)c1C (single isomer, unassigned) [Compound 88]	8.82	60000 nM
CCOC(=O)C1=C(CN2CC(F)(F)[C@@H]3[C@H]2CN(C(C)C)N3CCC(C)(C)C(=O)O)NC(c2nccs2)=N[C@H]1c1cccc(F)c1C (single isomer, unassigned) [Compound 89]	7.22	> 3120 nM
CCOC(=O)C1=C(CN2CC(F)(F)[C@@H]3[C@H]2CN(CC)N3CCC(C)(C)C(=O)O)NC(c2nccs2)=N[C@H]1c1cccc(F)c1C (single isomer, unassigned) [Compound 90]	7.69	19200 nM
CCOC(=O)C1=C(CN2CC(F)(F)[C@@H]3[C@H]2CN(CC(F)F)N3CCC(C)(C)C(=O)O)NC(c2nccs2)=N[C@H]1c1cccc(F)c1C (single isomer, unassigned) [Compound 91]	7.15	8800 nM
CCOC(=O)C1=C(CN2CC(F)(F)[C@@H]3[C@H]2CN(CC(F)(F)F)N3CCC(C)(C)C(=O)O)NC(c2nccs2)=N[C@H]1c1cccc(F)c1C (single isomer, unassigned) [Compound 92]	7.21	5000 nM
CCOC(=O)C1=C(CN2CC(F)(F)[C@@H]3[C@H]2CN(C)N3CCC(C)(C)C(=O)O)NC(c2nccs2)=N[C@@H]1c1ccc(F)c(F)c1C (single isomer, unassigned) [Compound 93, 4-(4-((6-(3,4-difluoro-2-methylphenyl)-5-(ethoxycarbonyl)-2-(thiazol-2-yl)-3,6-dihydropyrimidin-4-yl)methyl)-6,6-difluoro-2-methylhexahydropyrrolo[3,2-c]pyrazol-1(2H)-yl)-2, ethylbutanoic acid]	7.92	5400 nM
COC(=O)C1=C(CN2CC(F)(F)[C@@H]3[C@H]2CN(C)N3CCC(C)(C)C(=O)O)NC(c2nccs2)=N[C@H]1c1ccc(F)cc1Cl (single isomer, unassigned) [Compound 94]	7.85	25000 nM
COC(=O)C1=C(CN2CC(F)(F)[C@@H]3[C@H]2CN(C)N3CCC(C)(C)C(=O)O)NC(c2nccs2)=N[C@H]1c1ccc(F)c(F)c1Cl (single isomer, unassigned) [Compound 95, 4-((cis)-4-((6-(2-Chloro-3,4-difluorophenyl)-5-(methoxycarbonyl)-2-(thiazol-2-yl)-3,6-dihydropyrimidin-4-yl)methyl)-6,6-difluoro-2-methylhexahydropyrrolo[3,2-c]pyrazol-1(2H)-yl)-2,2-dimethylbutanoic acid]	7.62	8200 nM
CCOC(=O)C1=C(CN2CC(F)(F)[C@@H]3[C@H]2CN(C)N3CCC(C)(C)C(=O)O)NC(c2nccs2)=N[C@@H]1c1ccc(F)nc1C (single isomer, unassigned) [Compound 96]	7.30	> 100000 nM
CCOC(=O)C1=C(CN2CC(F)(F)[C@@H]3[C@H]2CN(C)N3CC(C)(C)C(=O)O)NC(c2nccs2)=N[C@@H]1c1ccc(F)nc1C (single isomer, unassigned) [Compound 97]	7.11	> 100000 nM
CCOC(=O)C1=C(CN2CC(F)(F)[C@@H]3[C@H]2CN(C)N3CC2CC(C)(C(=O)O)C2)NC(c2nccs2)=N[C@H]1c1cccc(F)c1C (single isomer, unassigned) [Compound 98]	7.85	> 6200 nM
CCOC(=O)C1=C(CN2CC(F)(F)[C@@H]3[C@H]2CN(C)N3CCOC(C)(C)C(=O)O)NC(c2nccs2)=N[C@H]1c1cccc(F)c1C (single isomer, unassigned) [Compound 99]	6.81	25000 nM
[2H]C([2H])([2H])N1C[C@@H]2[C@H](N1CCC(C)(C)C(=O)O)C(F)(F)CN2CC1=C(C(=O)OCC)[C@H](c2cccc(F)c2C)N=C(c2nccs2)N1 (single isomer, unassigned) [Compound 100]	7.96	12000 nM
COC(=O)C1=C(CN2CC(F)(F)[C@@H]3[C@H]2CN(C)N3CCC(C)(C)C(=O)O)NC(c2nccs2)=N[C@H]1c1ccc(F)c(F)c1C (single isomer, unassigned) [Compound 101, 4-((cis)-4-((6-(3,4-Difluoro-2-methylphenyl)-5-(methoxycarbonyl)-2-(thiazol-2-yl)-3,6-dihydropyrimidin-4-yl)methyl)-6,6-difluoro-2-methylhexahydropyrrolo[3,2-c]pyrazol-1(2H)-yl)-2,2-dimethylbutanoic acid]	7.60	> 3100 nM
CCOC(=O)C1=C(CN2CC(F)(F)[C@@H]3[C@H]2CN(C)N3CCC(C)(C)C(=O)O)NC(c2nccs2)=N[C@H]1c1cccc(F)c1Cl (single isomer, unassigned) [Compound 102, 4-((cis)-4-((6-(2-chloro-3-fluorophenyl)-5-(ethoxycarbonyl)-2-(thiazol-2-yl)-3,6-dihydropyrimidin-4-yl)methyl)-6,6-difluoro-2-methylhexahydropyrrolo[3,2-c]pyrazol-1(2H)-yl)-2,2-dimethylbutanoic acid]	7.87	53800 nM
CCOC(=O)C1=C(CN2CC(F)(F)[C@@H]3NCC[C@@H]32)NC(c2nccs2)=N[C@H]1c1cccc(F)c1C (single isomer, unassigned) [Compound 103]	7.27	19800 nM
